Results published in patent US20110256579A1, “Method for Verifying and/or Identifying Hormonally Effective Substances” (TECHNISCHE UNIVERSITAET DRESDEN, priority 2008, published 2011).

Tested on: surface receptors of the a-yeast strain
Test: Shmoo effect positive control with purified α-factor
Format: cell-based, Saccharomyces cerevisiae
Conditions: BY4741 MATa p423GPD-AR1, p426PGK-MFα1; purified α-factor added
Method: The recognition of the α-factor (yeast pheromone) by surface receptors effects inter alia a directed growth (shmoo effect) of the yeast cells toward the source of the pheromone. Under natural conditions this serves for subsequent fusion with the yeast cell of the opposite mating type.
To the positive control purified α-factor is added. […] Based on this control, the androgen-independent induction of the yeast cells can be checked.

In the case of α-factor, the “directed growth (shmoo effect) of the yeast cells” value is reported as “Directed growth of the yeast cells is observed”.
